Results on 1 compound are retold here after patent publication US11027245B1, “Process for continuous dissolution of a solid in a reaction medium” (Evonik Operations GmbH, priority 2017, dated 2021).

The nature of the data set: Dissolution of phenothiazine fixed bed in acetic acid (UV absorption at 390 nm). Type of data set: physicochemical. The following applies: saturation concentration. The text has this:
The dissolution of phenothiazine in acetic acid according to the process according to the invention was investigated by experiment. FIG. 2 illustrates the relevant experimental setup.
A phenothiazine fixed bed is placed in a temperature-controllable chromatography column (Götec-Labor GmbH, Superformance 300-16, length 300 mm, internal diameter 16 mm, double-walled for thermostatting, 20 μm type F filter frit). Pump P-01 conveys acetic acid from the reservoir vessel through the fixed bed temperature-controlled to 20° C. into a waste vessel. Pump P-02 diverts a sample stream to the UV detector. The phenothiazine concentration is determined by absorption measurement at 390 nm. The detector is previously calibrated with a phenothiazine solution of known concentration.
A first experiment was performed with a flow rate of 12.4 cm/min at a volume flow of 25.0 ml/min. […] The measured detector extinction (dashed) periodically deviates from the concentration at the bed outlet since to protect the measuring cell from solids particles the solution was not passed through the detector upon startup. In the further course of the experiment calibration solutions were passed through the detector as a control. The “corrected bed outlet concentration” (solid curve beginning at a concentration of 0.000) was calculated over the experimental duration via linear interpolation and extrapolation. […]

With `c1ccc2c(c1)Nc1ccccc1S2` [phenothiazine], the “Max conc (phenothiazine)” value was 1.23 % by wt (Experiment 1, fixed bed thermostatted 20.0 °C, flow rate 12.4 cm/min, volume flow 25.0 ml/min) and 1.22 % by wt (Experiment 2, fixed bed thermostatted 20.0 °C, flow rate 11.0 cm/min, volume flow 22.2 ml/min).
